This note sets out measurements from patent publication US20200131669A1, “CYCLIC PEPTIDE COMPOUND HAVING HIGH MEMBRANE PERMEABILITY, AND LIBRARY CONTAINING SAME” (Chugai Seiyaku Kabushiki Kaisha, priority 2017, published 2020).

Structures are written as SMILES. Starred links: 1 amine or outer side, 2 acyl side, 3 side chain; linkers in the order of their positions; H or OH if unused. Positions of bridges follow the written chain, without caps; N, C: chain ends. Non-standard residues stand in square brackets, D forms with d. Residues, ends and D or L forms follow the SMILES beside them. *: point of attachment. X18 = CC(C(=O)[C@H](COC(C)(C)C)N[*:1])[C@@H](Cc1ccccc1)C(=O)[*:2]; X19 = CC(C)[C@@H](C(=O)C[C@H](C(=O)[*:2])[C@@H](C)O)N(C)[*:1]; X16 = O=C(C1CCCCC1)[C@H](CC(=O)[*:2])N[*:1]; NMeF = CN[C@@H](Cc1ccccc1)C(=O)O; NMeGABA = CN(CCCC(=O)[*:2])[*:1]; NMeD = CN[C@@H](CC(=O)O)C(=O)O; NMeL = CN[C@@H](CC(C)C)C(=O)O; NMeV = CN[C@H](C(=O)O)C(C)C; NMeA = CN[C@@H](C)C(=O)O; Piperidide = C1CCN(*)CC1; dNMeA = CN[C@H](C)C(=O)O; Sar = CNCC(=O)O; tBu = CC(C)(C)*

The nature of one data set: Caco-2 membrane permeability, improved method as used in the following Examples (96-well, 20 to 24 h preincubation). The note with it: human, Caco-2, Caco-2 (cm/sec). The format is in vitro ADME. In a few lines:
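Papp (cm/sec) was derived from LC/MS of basal samples collected 180 min after apical dosing in FaSSIF/HBSS pH 6.0 with 1% DMSO, against a basal HBSS pH 7.4 receiver containing 4% BSA. Three-week Caco-2 cultures were first preincubated with compound in DMEM+FaSSIF at 37 °C for 20–24 h.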
On to `CC(C)C[C@@H]1NC(=O)[C@H](Cc2ccccc2)N(C)C(=O)[C@H](COC(C)(C)C)NC(=O)[C@H](Cc2ccccc2)N(C)C(=O)[C@H](C)N(C)C(=O)[C@H](CC(C)C)N(C)C(=O)[C@H](C)N(C)C(=O)C[C@@H](C(=O)N2CCCCC2)N(C)C(=O)[C@H](Cc2ccccc2)N(C)C(=O)[C@H]([C@@H](C)O)CC(=O)[C@H](C(C)C)N(C)C1=O` [pd213] ([NMeA][NMeL][NMeA][NMeF]S(tBu)[NMeF]L[X19][NMeF][NMeD]-Piperidide; lactam N-10), for which the Papp A→B at 180 min came out at 1.3 ×10⁻⁶ cm/s. Compound `CC(C)C[C@@H]1NC(=O)[C@H](Cc2ccccc2)N(C)C(=O)[C@H](COC(C)(C)C)NC(=O)[C@H](Cc2ccccc2)N(C)C(=O)[C@H](C)N(C)C(=O)[C@H](CC(C)C)N(C)C(=O)[C@@H]2CCCN2C(=O)N[C@@H](C(=O)N2CCCCC2)NC(=O)[C@H](Cc2ccccc2)N(C)C(=O)[C@H]([C@@H](C)O)NC(=O)[C@H](CC(C)C)N(C)C1=O` [pd214] had a Papp A→B at 180 min of 1.2 ×10⁻⁶ cm/s. On the same count and under the same terms, to `CC(C)C[C@@H]1NC(=O)[C@H](Cc2ccccc2)N(C)C(=O)[C@@H](C(C)C)NC(=O)C[C@@H](C(=O)N2CCCCC2)NC(=O)[C@H](Cc2ccccc2)N(C)C(=O)[C@H](Cc2ccccc2)N(C)C(=O)[C@H](COC(C)(C)C)NC(=O)[C@H](CC(C)C)N(C)C(=O)CN(C)C(=O)[C@H]([C@@H](C)O)NC(=O)[C@H](CC(C)C)N(C)C1=O` [pd215] ([dV][NMeF]L[NMeL]T[Sar][NMeL]S(tBu)[NMeF][NMeF]D-Piperidide; lactam N-11) belongs 1.2 ×10⁻⁶ cm/s; to `CC(C)C[C@H]1C(=O)N[C@@H](C(C)C)C(=O)N(C)[C@@H](Cc2ccccc2)C(=O)N(C)[C@@H](Cc2ccccc2)C(=O)N[C@@H](COC(C)(C)C)C(=O)N(C)[C@@H](CC(C)C)C(=O)N[C@@H]([C@@H](C)O)C(=O)N(C)[C@@H](Cc2ccccc2)C(=O)N(C)[C@@H](CC(C)C)C(=O)N[C@H](C(=O)C2CCCCC2)CC(=O)N(C)CCCC(=O)N1C` [pd216] (cyclo([NMeF][NMeF]S(tBu)[NMeL]T[NMeF][NMeL][X16][NMeGABA][NMeL]V)), 1.2 ×10⁻⁶ cm/s; to `CC(C)C[C@@H]1NC(=O)[C@H](Cc2ccccc2)N(C)C(=O)[C@H](C)NC(=O)C[C@@H](C(=O)N2CCCCC2)NC(=O)[C@H](Cc2ccccc2)N(C)C(=O)[C@H](Cc2ccccc2)N(C)C(=O)[C@H](COC(C)(C)C)NC(=O)[C@H](CC(C)C)N(C)C(=O)CN(C)C(=O)[C@H]([C@@H](C)O)NC(=O)[C@H](CC(C)C)N(C)C1=O` [pd217] (A[NMeF]L[NMeL]T[Sar][NMeL]S(tBu)[NMeF][NMeF]D-Piperidide; lactam N-11), 1.1 ×10⁻⁶ cm/s. On the same count and under the same terms, next, `CC(C)C[C@@H]1NC(=O)[C@H](CC(C)C)N(C)C(=O)[C@H](C)N(C)C(=O)C[C@@H](C(=O)N(C)[C@@H](Cc2ccccc2)C(=O)N[C@@H](C)C(=O)N2CCCCC2)NC(=O)[C@H]([C@@H](C)O)NC(=O)[C@H](CC(C)C)N(C)C(=O)[C@H](Cc2ccccc2)NC(=O)[C@H](Cc2ccccc2)N(C)C(=O)[C@H](CC(C)C)N(C)C1=O` [pd218] ([NMeA][NMeL]L[NMeL][NMeF]F[NMeL]TD[NMeF]A-Piperidide; lactam N-9): 1.1 ×10⁻⁶ cm/s; `CC(C)C[C@@H]1NC(=O)[C@H](Cc2ccccc2)C(C)C(=O)[C@H](COC(C)(C)C)NC(=O)[C@H](Cc2ccccc2)N(C)C(=O)[C@H](C)N(C)C(=O)[C@H](CC(C)C)N(C)C(=O)[C@H]2CCCN2C(=O)C[C@@H](C(=O)N2CCCCC2)N(C)C(=O)[C@H](Cc2ccccc2)N(C)C(=O)[C@H]([C@@H](C)O)NC(=O)[C@H](C(C)C)N(C)C1=O` (stereo partly shown) [pd219] ([dP][NMeL][NMeA][NMeF][X18]L[NMeV]T[NMeF][NMeD]-Piperidide; lactam N-10): 1.1 ×10⁻⁶ cm/s; `CC(C)C[C@@H]1NC(=O)[C@H](Cc2ccccc2)N(C)C(=O)[C@H](COC(C)(C)C)NC(=O)[C@H](Cc2ccccc2)N(C)C(=O)[C@H](C)N(C)C(=O)[C@H](CC(C)C)N(C)C(=O)[C@@H](C)NC(=O)C[C@@H](C(=O)N2CCCCC2)NC(=O)[C@H](Cc2ccccc2)N(C)C(=O)[C@H]([C@@H](C)O)NC(=O)[C@H](CC(C)C)N(C)C1=O` [pd220] ([dA][NMeL][NMeA][NMeF]S(tBu)[NMeF]L[NMeL]T[NMeF]D-Piperidide; lactam N-11): 1.1 ×10⁻⁶ cm/s. Still for that read-out and setting: next, `CC(C)C[C@@H]1NC(=O)[C@H](Cc2ccccc2)N(C)C(=O)[C@@H](C(C)C)NC(=O)C[C@@H](C(=O)N2CCCCC2)NC(=O)[C@H](Cc2ccccc2)N(C)C(=O)[C@H](Cc2ccccc2)N(C)C(=O)[C@H](C(C)C)NC(=O)[C@H](CC(C)C)N(C)C(=O)CN(C)C(=O)[C@H]([C@@H](C)O)NC(=O)[C@H](CC(C)C)N(C)C1=O` [pd221] ([dV][NMeF]L[NMeL]T[Sar][NMeL]V[NMeF][NMeF]D-Piperidide; lactam N-11): 1.1 ×10⁻⁶ cm/s.

For the compound `CC(C)C[C@@H]1NC(=O)[C@H](Cc2ccccc2)N(C)C(=O)[C@H](CC(C)C)N(C)C(=O)[C@@H](C)N(C)C(=O)C[C@@H](C(=O)N2CCCCC2)NC(=O)[C@H](CC(C)C)N(C)C(=O)[C@H](Cc2ccccc2)N(C)C(=O)[C@H]([C@@H](C)O)NC(=O)[C@H](Cc2ccccc2)N(C)C1=O` [pd223] ([dNMeA][NMeL][NMeF]L[NMeF]T[NMeF][NMeL]D-Piperidide; lactam N-9), the Papp A→B at 180 min was 1.1 ×10⁻⁶ cm/s. Regarding `CC(C)C[C@@H]1NC(=O)[C@H](Cc2ccccc2)N(C)C(=O)[C@@H](C)NC(=O)C[C@@H](C(=O)N2CCCCC2)N(C)C(=O)[C@H](Cc2ccccc2)N(C)C(=O)[C@H](Cc2ccccc2)N(C)C(=O)[C@H](COC(C)(C)C)NC(=O)[C@H](CC(C)C)N(C)C(=O)CN(C)C(=O)[C@H]([C@@H](C)O)NC(=O)[C@H](CC(C)C)N(C)C1=O` [pd224] ([dA][NMeF]L[NMeL]T[Sar][NMeL]S(tBu)[NMeF][NMeF][NMeD]-Piperidide; lactam N-11), the Papp A→B at 180 min worked out at 1 ×10⁻⁶ cm/s. Regarding `CC[C@H](C)[C@@H]1NC(=O)[C@H](CC(C)C)N(C)C(=O)CN(C)C(=O)[C@H]([C@@H](C)O)NC(=O)[C@H](Cc2ccccc2)N(C)C(=O)[C@H](CC(C)C)NC(=O)[C@H](Cc2ccccc2)N(C)C(=O)[C@@H](CC(C)C)NC(=O)C[C@@H](C(=O)N2CCCCC2)NC(=O)[C@H](CC(C)C)N(C)C(=O)[C@H](Cc2ccccc2)N(C)C1=O` [pd225] ([dL][NMeF]L[NMeF]T[Sar][NMeL]I[NMeF][NMeL]D-Piperidide; lactam N-11), the Papp A→B at 180 min came to 1 ×10⁻⁶ cm/s.

Staying with this data set, now noted: human, Caco-2; read-out: Caco-2.
With `CC[C@H](C)[C@@H]1NC(=O)[C@H](C)N(C)C(=O)C[C@@H](C(=O)N(C)[C@@H](Cc2ccccc2)C(=O)N[C@@H](C)C(=O)N2CCCCC2)NC(=O)[C@H](Cc2ccccc2)N(C)C(=O)CN(C)C(=O)[C@H]([C@@H](C)O)NC(=O)[C@H](C)N(C)C(=O)[C@H](C(C)C)N(C)C(=O)[C@H](Cc2ccccc2)NC(=O)[C@H](CC(C)C)N(C)C(=O)[C@H](CC(C)C)N(C)C1=O` [pd222] ([NMeA]I[NMeL][NMeL]F[NMeV][NMeA]T[Sar][NMeF]D[NMeF]A-Piperidide; lactam N-11), the Papp A→B at 180 min was found to be 1.1 ×10⁻⁶ cm/s.
